Series [1] deals with cardiomyocyte network. As to the kind of experiment: Excitation conduction transmitting through a linearly arranged cardiomyocyte network (transmission time, its fluctuation, FPD, STVFPD). The class given is cell-based. The text has this:
FIGS. 65a, b schematically show an example of a method of such measurement of excitation conduction transmitting through a cardiomyocyte network. […] Arranged on a bottom surface of each cell housing on a substrate surface are respective electrodes (about 8 μm in diameter) for measurements of cellular potential, and from each of the electrodes, respective lead lines are extended. A single cardiomyocyte is received in each of the cell housings.
Specifically, in order to measure the temporal variation in the excitation conduction transmitting through the cellular population, an ignition peak of depolarization excited by an initial excitation conduction of each cell or each local point is measured, and at the same time, an ignition peak of an initial depolarization based on excitation conduction in another local area of adjacent another cell or adjacent another cellular population is measured; then a variation of a transmission rate or a transmission elapsed time is measured with respect to the distance between the two measurement points; and then the level of fluctuation of the transmission is quantitatively measured. Generally, the initial peak based on the excitation conduction is deemed to be a sodium spike. Thus, in view of this, the measurements of the initial ignition peak based on the excitation conduction are equivalent to the measurements of the sodium spikes. For example, where a drug with a big risk of proarrhlythmia is used, an increase in the fluctuation is utilized for the measurements. Here, the following are required: (1) a network of a plurality of cardiomyocytes is formed; (2) there is a means for accurately measuring the transmission delay time by measuring respective cellular potential wave form at two or more spatially different points within the network, and simultaneously accurately measuring the time of depolarization ignition spikes excited by the initial excitation conduction of the wave form; (3) in the case where a forced pulsation is provided, three or more electrodes are used to measure time required for transmission of the pulsation between respective electrodes at other measurement electrodes using the electrodes at both ends as stimulation electrodes, enabling measurements of temporal fluctuation of transmission rate or transmission time between the electrodes. As for the fluctuation, the STV as shown in Equation 3 in FIG. 24(c), for example, can be used for quantification. Here, Delayn and Delayn+1 (FIG. 65) can substitute for Vn and Vn+1. For transmission, when velocity is used, respective velocities can substitute for Delayn and Delayn+1. […] Thus, the transmission time will be measured as an extremely shorter transmission time than a transmission delay measured normally between adjacent electrodes. […]

For series [2], the system named is cardiomyocyte network. As to the kind of experiment: Simultaneous measurement of extracellular potential (FP) and contractile force (optical imaging) in a cardiomyocyte network. The class given is cell-based. The source says:
FIG. 43 is a schematic diagram showing an example of a system configuration of the present invention to simultaneously measure the mechanical properties and electrical properties of cardiomyocytes. The present system includes (1) a cellular network chip that can be used for culturing a cell population, includes a plurality of micro-electrodes disposed on a substrate and can be used for acquiring cellular potential data of a small area of the population; (2) a chip mounter for mounting the chip and joining electrically with cell-stimulating and/or cellular potential measuring system; (3) an environmental control vessel which can be used to control the environment such as temperature, humidity, oxygen concentration and carbon dioxide concentration of the cell population being cultured; (4) a micro multi-electrode potential measurement system that can give stimulation to a specific cell of a cardiomyocyte population, and allows simultaneous continuous measurements of cellular potentials of various small areas in the cell population; (5) one or more position-coordinate probe microparticles configured to measure changes in shape of myocardial cells and allow easy identification of cardiomyocytes using a plastic, polymer, glass or metal microparticles such as polystyrene microparticles, glass microparticles or gold microparticles of sizes from at minimum about 0.1, 0.2 μm, 0.3 μm, 0.4 μm, 0.5 μm, 0.6 μm, 0.7 μm, or preferably about 0.8 μm, more preferably about 0.9 μm, or most preferably about 1 μm to at most about 500 μm, 400 μm, 300 μm, preferably about 200 μm, more preferably about 100 μm or most preferably about 50 μm, wherein the particles are disposed in the cell population by mixing them on the surface of the cardiomyocyte population in the cell network chip or in the cell population and culturing them; (6) an optical image capturing system for optically measuring the microparticles, wherein the system includes a light source, an optical microscope and an image-capturing camera to capture the images of the microparticles; and (7) a computer system for image analysis, cellular potential analysis, stimulus control and/or integrated data acquisition, wherein the system is capable of measurements of cellular potential and analysis of waveforms of the potential, measurements of cell displacements by image analysis and feedback stimulation based on the analysis results. In the measurements using the device system, as for the stimulus to cause depolarization of the myocardial cells, the stimulus can be provided by selecting mainly from three means, i.e., (A) measurements using conduction of autonomous pulsation of the cardiomyocyte population, (B) measurements of conduction by providing a forced electrical stimulation from outside to a specific cell in the cardiomyocyte population and (C) measurements of conduction by providing a feed-back stimulus at a specific timing to meet the relationship of the delay time and the value of the cellular potential based on the cell voltage measured data to the specific cells in the cardiomyocyte population.
FIG. 44 is an example of a data acquisition monitor screen showing an example of data obtained from an example of a system configuration of the present invention to simultaneously measure the mechanical properties and the electrical properties of cardiomyocytes. In a setting of this example, a large number of polystyrene microparticles are placed on the surface of the cardiomyocyte population, a probe-particle displacement-observation window for five of the polystyrene microparticles selected as probes is set, and the center of gravity of the window moves with the movement of the microparticles in the window, thereby displacement of the particular probe microparticles can be measured continuously as a change in vector time in the directions of the X-axis and Y-axis. […]

Structures are written as SMILES.

Take `CC(C)(C)c1ccc(C(O)CCCN2CCC(C(O)(c3ccccc3)c3ccccc3)CC2)cc1` (stereo not shown) [terfenadine]: the “fluctuation of FPD (STVFPD)” value in the series on cardiomyocyte network [1] (FIG. 66e) is given as “barely recognizable”. Moreover, in the series on cardiomyocyte network [1] (FIG. 66d), the “FPD (as indicator of toxicity)” value is recorded as “is not seen”. In the series on cardiomyocyte network [1] (concentration over 1 μM), the “fluctuation of time required for transmission” value is “increases” and the “transmission rate between adjacent electrodes (relative to no drug)” value is recorded as “suddenly decreased”.
`COc1ccc(CCN(C)CCCC(C#N)(c2ccc(OC)c(OC)c2)C(C)C)cc1OC` (stereo not shown) [verapamil]: the “angle fluctuation against a decrease in contractile force” value in the series with cardiomyocyte network [2] (10 nM) is on record as “barely increases”. For the same compound, in the series on cardiomyocyte network [2] (100 nM), the “angle fluctuation (contraction direction)” value was “rapid fluctuation of contractile direction in the angular direction”, the “contractile forces (time variation)” value is “disappear rapidly” and the “electrical firing of excitatory conduction of cells” value is listed as “is maintained”. Further, in the series on cardiomyocyte network [2] (1000 nM), the electrophysiological excitation result is “does not occur” and the mechanical contraction result is on record as “does not occur”.

The record behind these values is patent publication US20160011176A1, “METHOD AND DEVICE FOR EXAMINING MYOCARDIAL TOXICITY AND EVALUATING CARDIOMYOCYTES” (NATIONAL UNIVERSITY CORPORATION TOKYO MEDICAL AND DENTAL …, priority 2012, published 2016).
